# Source: patent US20260042755A1, “GPR6 INVERSE AGONISTS” (MapLight Therapeutics, Inc., priority 2022, published 2026)
# Tests used:
# GPR6 = molecular target: T1, GPR6 (Homo sapiens, UniProt P46095); assay: GPR6 antagonist functional cAMP assay (LANCE Ultra cAMP TR-FRET, CHO cells stably expressing GPR6); type: cell-based
# T1 construct: expressed in transfected cells; host or cells: CHO cells
# In short: (§1)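 Stable CHO-GPR6 or CHO-GPR3 cells (10,000/well) in Krebs-Ringer buffer with 0.1% BSA and 150 μM Ro 20-1724 were exposed to compounds for 45 min at 37° C (0.1% DMSO). cAMP read by LANCE Ultra TR-FRET; IC50 from 4-parameter fit normalized to DMSO and reference compounds.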
# GPR3 = molecular target: T2, GPR3 (Homo sapiens, UniProt P46089); assay: GPR3 antagonist functional cAMP assay (LANCE Ultra cAMP TR-FRET, CHO cells stably expressing GPR3); type: cell-based
# T2 construct: expressed in transfected cells; host or cells: CHO cells
# T2 sequence (P46089 whole entry, species assumed): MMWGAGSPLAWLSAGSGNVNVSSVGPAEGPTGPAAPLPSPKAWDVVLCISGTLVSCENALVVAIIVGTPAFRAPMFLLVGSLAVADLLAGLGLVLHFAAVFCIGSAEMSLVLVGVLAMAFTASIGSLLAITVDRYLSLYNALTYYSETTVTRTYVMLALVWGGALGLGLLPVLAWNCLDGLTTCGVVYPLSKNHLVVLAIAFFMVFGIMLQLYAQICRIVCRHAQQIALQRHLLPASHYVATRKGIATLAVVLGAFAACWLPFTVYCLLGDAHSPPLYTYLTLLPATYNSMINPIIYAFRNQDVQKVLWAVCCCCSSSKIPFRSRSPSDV
# In short: as §1
# [1] = CHO cells stably expressing GPR6, cAMP assay (Example 24)
# [2] = CHO cells stably expressing GPR3, cAMP assay (Example 24)
# [3] = CHO cells stably expressing GPR6, cAMP assay
# [4] = CHO cells stably expressing GPR3, cAMP assay
# T1 sequence (P46095 whole entry): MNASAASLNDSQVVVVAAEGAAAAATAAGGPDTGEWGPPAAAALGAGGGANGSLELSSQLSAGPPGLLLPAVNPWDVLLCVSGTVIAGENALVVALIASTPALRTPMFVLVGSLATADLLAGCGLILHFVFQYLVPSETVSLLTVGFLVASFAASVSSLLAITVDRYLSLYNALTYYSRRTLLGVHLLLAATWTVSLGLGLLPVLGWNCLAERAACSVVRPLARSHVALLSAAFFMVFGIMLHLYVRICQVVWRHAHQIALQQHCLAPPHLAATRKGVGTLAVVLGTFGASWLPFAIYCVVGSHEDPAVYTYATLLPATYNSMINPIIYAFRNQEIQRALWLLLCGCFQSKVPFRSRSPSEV
SMILES,IC50 (GPR6; [1]) [nM],IC50 (GPR3; [2]) [nM],IC50 (GPR6; [3]) [nM],IC50 (GPR3; [4]) [nM]
"CC(C)(O)C(O)c1cc2nc(N3CCC(Oc4ccc(F)cc4F)CC3)c(-c3cnn(C4CC4)c3)nc2cn1 (stereo not drawn) [Compound 469, 1-[3-(1-cyclopropyl-1H-pyrazol-4-yl)-2-[4-(2,4-difluorophenoxy)piperidin-1-yl]pyrido[3,4-b]pyrazin-7-yl]-2-methylpropane-1,2-diol]",100 to 1000,1000 to 30000,–,–
"Cn1cc(-c2nc3cnc(C(O)CO)cc3nc2N2CCC(Oc3ccc(F)cc3F)CC2)cn1 (stereo not drawn) [Compound 470, 1-(2-(4-(2,4-difluorophenoxy)piperidin-1-yl)-3-(1-methyl-1H-pyrazol-4-yl)pyrido[3,4-b]pyrazin-7-yl)ethane-1,2-diol]",1000 to 30000,1000 to 30000,–,–
"CCn1cc(-c2nc3c(nc2N2CCC(Oc4ccc(F)cc4F)CC2)CCN(C(=O)C2COCCO2)C3)cn1 (stereo not drawn) [Compound 474, 4-(2,4-difluorophenoxy)-1-[6-(1,4-dioxane-2-carbonyl)-3-(1-ethyl-1H-pyrazol-4-yl)-5H,6H,7H,8H-pyrido[3,4-b]pyrazin-2-yl]piperidine]",< 100,1000 to 30000,–,–
"CCn1cnc(-c2nc3c(nc2N2CCC(Oc4ccc(F)cc4F)CC2)CCN(C(C)=O)C3)c1 [Compound 476, 1-{2-[4-(2,4-difluorophenoxy)piperidin-1-yl]-3-(1-ethyl-1H-imidazol-4-yl)-5H,6H,7H,8H-pyrido[3,4-b]pyrazin-6-yl}ethan-1-one]",1000 to 30000,1000 to 30000,–,–
"Cc1cncc2nc(-c3cnn(C)c3)c(N3CCC(Oc4ccc(F)cc4F)CC3)nc12 [Compound 480, 4-(2,4-difluorophenoxy)-1-[8-methyl-3-(1-methyl-1H-pyrazol-4-yl)pyrido[3,4-b]pyrazin-2-yl]piperidine]",100 to 1000,1000 to 30000,–,–
"CN1CC(c2cc3nc(N4CCC(Oc5ccc(F)cc5F)CC4)c(-c4cnn(C)c4)nc3cn2)OC1=O (stereo not drawn) [Compound 482, 5-(2-(4-(2,4-difluorophenoxy)piperidin-1-yl)-3-(1-methyl-1H-pyrazol-4-yl)pyrido[3,4-b]pyrazin-7-yl)-3-methyloxazolidin-2-one]",100 to 1000,1000 to 30000,–,–
"CCn1cc(-c2nc3c(nc2N2CCC(Oc4ccc(F)cc4F)CC2)CCN(C(=O)C(O)CO)C3)cn1 (stereo not drawn) [Compound 484, 1-{2-[4-(2,4-difluorophenoxy)piperidin-1-yl]-3-(1-ethyl-1H-pyrazol-4-yl)-5H,6H,7H,8H-pyrido[3,4-b]pyrazin-6-yl}-2,3-dihydroxypropan-1-one]",100 to 1000,1000 to 30000,–,–
"CCn1cc(-c2nc3c(nc2N2CCC(Oc4ccc(F)cc4F)CC2)CCN(S(C)(=N)=O)C3)cn1 (stereo not drawn) [Compound 485, 2-(4-(2,4-difluorophenoxy)piperidin-1-yl)-3-(1-ethyl-1H-pyrazol-4-yl)-6-(S-methylsulfonimidoyl)-5,6,7,8-tetrahydropyrido[3,4-b]pyrazine]",100 to 1000,1000 to 30000,–,–
"Cc1nccc2nc(N3CCC(Oc4ccc(F)cc4F)CC3)c(-c3cnn(C)c3)nc12 [Compound 487, 4-(2,4-difluorophenoxy)-1-[5-methyl-3-(1-methyl-1H-pyrazol-4-yl)pyrido[3,4-b]pyrazin-2-yl]piperidine]",< 100,1000 to 30000,–,–
"Cn1cc(-c2nc3c(nc2N2CCC(Oc4ccc(F)cc4F)CC2)CC2COCC(=O)N2C3)cn1 (stereo not drawn) [Compound 488, 6-[4-(2,4-difluorophenoxy)piperidin-1-yl]-5-(1-methyl-1H-pyrazol-4-yl)-12-oxa-1,4,7-triazatricyclo[8.4.0.0^3,8]tet radeca-3(8),4,6-trien-14-one]",100 to 1000,1000 to 30000,–,–
"CC(=O)N1CCc2nc(N3CCC(Oc4ccc(F)cc4F)CC3)c(C3CC3CO)nc2C1 (stereo not drawn) [Compound 489, 1-(2-(4-(2,4-difluorophenoxy)piperidin-1-yl)-3-(2-(hydroxymethyl)cyclopropyl)-7,8-dihydropyrido[3,4-b]pyrazin-6(5H)-yl)ethan-1-one]",–,–,100 to 1000,1000 to 30000
"CC(=O)N1Cc2nc(-c3cnn(C)c3)c(N3CCC(Oc4ccc(F)cc4F)CC3)nc2CC1CO (stereo not drawn) [Compound 490, 1-{2-[4-(2,4-difluorophenoxy)piperidin-1-yl]-7-(hydroxymethyl)-3-(1-methyl-1H-pyrazol-4-yl)-5H,6H,7H,8H-pyrido[3,4-b]pyrazin-6-yl}ethan-1-one]",–,–,100 to 1000,1000 to 30000
"CCn1cc(-c2nc3c(nc2N2CCC(Oc4ccc(F)cc4F)CC2)CCN(C(=O)C2COCCN2C)C3)cn1 (stereo not drawn) [Compound 492, 3-{2-[4-(2,4-difluorophenoxy)piperidin-1-yl]-3-(1-ethyl-1H-pyrazol-4-yl)-5H,6H,7H,8H-pyrido[3,4-b]pyrazine-6-carbonyl}-4-methylmorpholine]",–,–,100 to 1000,1000 to 30000
"CCc1cncc(-c2nc3c(nc2N2CCC(Oc4ccc(F)cc4F)CC2)CCN(C(C)=O)C3)n1 [Compound 493, 1-{2-[4-(2,4-difluorophenoxy)piperidin-1-yl]-3-(6-ethylpyrazin-2-yl)-5H,6H,7H,8H-pyrido[3,4-b]pyrazin-6-yl}ethan-1-one]",–,–,1000 to 30000,1000 to 30000
"CC(=O)N1CCc2nc(N3CCC(Oc4ccc(F)cc4F)CC3)c(/C=C3/CCOC3)nc2C1 [Compound 494, 1-{2-[4-(2,4-difluorophenoxy)piperidin-1-yl]-3-{[(3Z)-oxolan-3-ylidene]methyl}-5H,6H,7H,8H-pyrido[3,4-b]pyrazin-6-yl}ethan-1-one]",–,–,100 to 1000,1000 to 30000
"CC(=O)OC1CCN(c2nc3c(nc2-c2cnn(C)c2)CN(Cc2ccccc2)CC3)C1 (stereo not drawn) [Compound 495, 1-[6-benzyl-3-(1-methyl-4-pyrazolyl)-5,6,7,8-tetrahydro-1,4,6-triaza-2-naphthyl]-3-pyrrolidinyl acetate]",–,–,1000 to 30000,≥ 30000
"CC(=O)N1CCc2nc(N3CCC(Oc4ccc(F)cc4F)CC3)c(C3CCN(CC(F)(F)F)CC3)nc2C1 [Compound 496, 1-{2-[4-(2,4-difluorophenoxy)-1-piperidyl]-3-[1-(2,2,2-trifluoroethyl)-4-piperidyl]-5,6,7,8-tetrahydro-1,4,6-triaza-6-naphthyl}-1-ethanone]",–,–,1000 to 30000,1000 to 30000

# Next, values leading:
IC50 (GPR6; [1]) [nM],IC50 (GPR3; [2]) [nM],IC50 (GPR6; [3]) [nM],IC50 (GPR3; [4]) [nM],SMILES
100 to 1000,1000 to 30000,–,–,"Cn1cc(-c2nc3cnc(CCO)cc3nc2N2CCC(Oc3ccc(F)cc3F)CC2)cn1 [Compound 468, 2-{2-[4-(2,4-difluorophenoxy)piperidin-1-yl]-3-(1-methyl-1H-pyrazol-4-yl)pyrido[3,4-b]pyrazin-7-yl}ethan-1-ol]"
100 to 1000,1000 to 30000,–,–,"CNc1nccc(-c2nc3c(nc2N2CCC(Oc4ccc(F)cc4F)CC2)CCN(C(C)=O)C3)n1 [Compound 473, 1-{2-[4-(2,4-difluorophenoxy)piperidin-1-yl]-3-[2-(methylamino)pyrimidin-4-yl]-5H,6H,7H,8H-pyrido[3,4-b]pyrazin-6-yl}ethan-1-one]"
< 100,1000 to 30000,–,–,"CC(=O)N1CCc2nc(N3CCC(Oc4ccc(F)cc4F)CC3)c(-c3ccnc(N)n3)nc2C1 [Compound 475, 1-[3-(2-aminopyrimidin-4-yl)-2-[4-(2,4-difluorophenoxy)piperidin-1-yl]-5H,6H,7H,8H-pyrido[3,4-b]pyrazin-6-yl]ethan-1-one]"
1000 to 30000,1000 to 30000,–,–,"CCc1cccc(-c2nc3c(nc2N2CCC(Oc4ccc(F)cc4F)CC2)CCN(C(C)=O)C3)n1 [Compound 477, 1-{2-[4-(2,4-difluorophenoxy)piperidin-1-yl]-3-(6-ethylpyridin-2-yl)-5H,6H,7H,8H-pyrido[3,4-b]pyrazin-6-yl}ethan-1-one]"
100 to 1000,1000 to 30000,–,–,"CCn1cc(-c2nc3c(nc2N2CCC(Oc4ccc(F)cc4F)CC2)CCN(S(N)(=O)=O)C3)cn1 [Compound 478, 2-(4-(2,4-difluorophenoxy)piperidin-1-yl)-3-(1-ethyl-1H-pyrazol-4-yl)-7,8-dihydropyrido[3,4-b]pyrazine-6(5H)-sulfonamide]"
1000 to 30000,1000 to 30000,–,–,"CCc1nccc(-c2nc3c(nc2N2CCC(Oc4ccc(F)cc4F)CC2)CCN(C(C)=O)C3)n1 [Compound 479, 1-{2-[4-(2,4-difluorophenoxy)piperidin-1-yl]-3-(2-ethylpyrimidin-4-yl)-5H,6H,7H,8H-pyrido[3,4-b]pyrazin-6-yl}ethan-1-one]"
100 to 1000,1000 to 30000,–,–,"CCn1cc(-c2nc3c(nc2N2CCC(Oc4ccc(F)cc4F)CC2)CCN(C(=O)C2CC(F)(F)CN2)C3)cn1 (stereo not drawn) [Compound 481, (2-(4-(2,4-difluorophenoxy)piperidin-1-yl)-3-(1-ethyl-1H-pyrazol-4-yl)-7,8-dihydropyrido[3,4-b]pyrazin-6(5H)-yl)(4,4-difluoropyrrolidin-2-yl)methanone]"
100 to 1000,1000 to 30000,–,–,"CCn1cc(-c2nc3c(nc2N2CCC(Oc4ccc(F)cc4F)CC2)CCN(C(=O)C2CC(F)(F)CN2C)C3)cn1 (stereo not drawn) [Compound 483, (4,4-difluoro-1-methylpyrrolidin-2-yl)(2-(4-(2,4-difluorophenoxy)piperidin-1-yl)-3-(1-ethyl-1H-pyrazol-4-yl)-7,8-dihydropyrido[3,4-b]pyrazin-6(5H)-yl)methanone]"
100 to 1000,1000 to 30000,–,–,"Cn1cc(-c2nc3c(nc2N2CCC(Oc4ccc(F)cc4F)CC2)CC2COC(=O)N2C3)cn1 (stereo not drawn) [Compound 486, 2-(4-(2,4-difluorophenoxy)piperidin-1-yl)-3-(1-methyl-1H-pyrazol-4-yl)-9a,10-dihydro-5H-oxazolo[3′,4′:1,6]pyrido[3,4-b]pyrazin-7(9H)-one]"
–,–,< 100,1000 to 30000,"CCn1cc(-c2nc3c(nc2N2CCC(Oc4ccc(F)cc4F)CC2)CCN(C(=O)C2COCCN2)C3)cn1 (stereo not drawn) [Compound 491, 3-{2-[4-(2,4-difluorophenoxy)piperidin-1-yl]-3-(1-ethyl-1H-pyrazol-4-yl)-5H,6H,7H,8H-pyrido[3,4-b]pyrazine-6-carbonyl}morpholine]"
